This note sets out measurements from US6087336A, “Peptide derivatives useful in treating autoimmune diseases” (Zeneca Limited, priority 1996, dated 2000).

One assay concerns the target T1, HLA-DR1 (Homo sapiens, UniProt P01903+P01911, A100R/D57E/F55L/F60I/F76Y/I96L/L162R/M171V/P40L/Q125E/R42F/V115G/Y59C).
T1 construct: Human HLA-DR antigens were purified from various cell lines; endogenous in cells; host or cells: Hom 2 cell line
The assay can be described thus: Variant to Test A: peptide selectivity binding assay, HLA-DR1. On the procedure: (§1) As a variant to test A, the ability of a peptide of the invention to bind to one or more HLA-DR molecules was assessed as follows:
(§2) (i) Purification of HLA-DR Types from Cell Lines
(§3) The method used was a modification of that described by Gorga et al, 1987, J.Biol.Chem. 262, 16087-16094. Human HLA-DR antigens were purified from various cell lines by immunoaffinity chromatography. […] Protein content was determined by a Biorad protein assay and purity by SDS-PAGE electrophoresis. […]
(§4) 200 nM biotin-FHA307-320 in phosphate buffered saline (PBS) was incubated with either purified HLA-DR1, DR2, DR4Dw4, DR4Dw13 or DR4Dw14, (2-20μg/ml) in V-well microtitre plates (Nunc) with or without inhibitor peptides in assay buffer (PBS, 0.01% NP40 (Sigma.)) For DR3 inhibition, 400 nM Biotin-Ahx-(D)Ala-Ala-Ala-Che-lle-Ala-Ala-Ala-Thr-Leu-Lys-Ala-Ala-(D)Ala-OH was incubated with purified DR3 (20 μg/ml.), and incubated as above. After 48 hours, the incubates were treated, and absorbance readings taken as described in Test A. The inhibitory activity of peptides, expressed as IC50 values, was calculated using Microcal Origin software on a PC.

The target in a further assay is HLA-DR3. The assay can be described thus: Variant to Test A: peptide selectivity binding assay, HLA-DR3. More on the design: species or system Human. The settings on record: did not bind significantly. On the procedure: as §1, §2, §3, §4

As a reminder, the IC50 is the midpoint of a concentration-inhibition curve. A high value points to lower potency. In the case of “Phv-Ala-Arg-Ala-IIb-Ala-Arg-Ala-Papa-NH2 [Example 23]”, the “binding to HLA-DR1” value on HLA-DR1 is “bind significantly”. Also, on HLA-DR3, the IC50 is > 100 µM.
